# Laboratory results as given in US9156796B2, “Benzoimidazole-carboxylic acid amide derivatives as APJ receptor modulators” (SANOFI, priority 2013, dated 2015).
# Biological target: T1, human apelin receptor (Homo sapiens, UniProt P35414)
# T1 construct: expressed in transfected cells
# T1 sequence (P35414 1-380): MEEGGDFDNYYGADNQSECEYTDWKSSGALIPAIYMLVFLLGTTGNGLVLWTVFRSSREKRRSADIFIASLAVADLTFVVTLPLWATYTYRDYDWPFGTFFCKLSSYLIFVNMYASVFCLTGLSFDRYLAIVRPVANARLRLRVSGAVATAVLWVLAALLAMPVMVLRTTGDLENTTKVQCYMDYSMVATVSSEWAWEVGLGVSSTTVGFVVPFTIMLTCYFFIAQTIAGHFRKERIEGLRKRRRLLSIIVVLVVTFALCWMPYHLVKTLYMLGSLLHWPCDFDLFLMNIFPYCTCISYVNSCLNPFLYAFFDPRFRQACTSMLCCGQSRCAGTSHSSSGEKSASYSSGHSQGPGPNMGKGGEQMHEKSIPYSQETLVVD
# Experiment: Determination of agonism on the human apelin receptor by a calcium fluorescence assay (FLIPR)
# Type: cell-based
# Conditions: HEK293 cells stably transfected with human apelin receptor and Giaq protein, Fluo-4 calcium fluorescence, read-out: EC50 (APJ agonism)
# Source text: Determination of Agonism on the Human Apelin Receptor by a Calcium Fluorescence Assay (FLIPR)
# The assay is based on the detection of intracellular calcium changes detected by the selective, calcium-chelating dye Fluo-4 (Molecular Probes). A large fluorescence intensity increase is observed upon calcium association with Fluo-4. The dye is delivered to the cell interior using an acetoxymethylester form of Fluo-4, where the intracellular esterase activity results in the charged species being released and trapped within the cytoplasm of the cell. […] By co-expressing the human apelin receptor and a promiscuous Giaq protein, agonism of the apelin receptor couples to phospholipase-C resulting in intracellular calcium mobilization.
# The HEK293 cells were stably transfected with the human apelin receptor and the Giaq protein. Cells were selected and maintained in a log phase of growth at 37° and 5% CO2 in the Iscove's minimal essential medium, 10% fetal calf serum, 1× Penicillin-Streptomycin, 400 μg/mL G418. One day prior the assay, cells were passaged by accutase and plated at a density of 50,000 cells/well onto a 96-well plates with black border but clear bottom (Costar, cat#3904) in a final volume of 200 μl growth medium.
# In order to load the cells the next day with the calcium-sensitive dye, growth medium was carefully replaced by dye solution (100 μl/well) containing Fluo-4 (4 μM) in basic measurement buffer (135 mM NaCl, 5 mM KCl, 1 mM magnesium sulphate, 5 mM glucose, 20 mM Hepes, 2.5 mM probenecid; adjusted to pH 7.4). Cells were incubated for 1 h at 37° C., and then washed 3× with buffer containing no dye. The washer was programmed to leave a remaining volume of 150 μl after the third wash in the plate.
# During the dye-loading of the cells, a serial compound dilution was performed in a separate 96-well plate with overall 4× increased concentrations. Small aliquots of DMSO stock solutions of the compounds (10 mM in 100% DMSO were aliquoted into 150 μl buffer in the first rows of the 96-well plates, and then serially diluted by a factor of 1:3 transferring each time 30 μl to the next rows already containing 60 μl buffer. All compounds were tested in a least 7 concentrations, each condition was performed in triplicates. As comparator, we used freshly prepared apelin-13 solutions, for which also a concentration-response curve was determined at each measurement day. The compound plate was incubated for 10 min after the final dilutions steps at 37° C. before transferring the dye-loaded cell plate and the compound plate into a FLIPR Tetra reader (Molecular Devices). Measurement within this reader started by pipetting the agonist solution (50 μl) on the cell plate. Overall perform 60 reads were performed with an interval of 2 sec. The maximum of the fluorescence transient was used to calculate the agonistic response of the cells. In order to normalize this response, which may vary from plate to plate we set the maximum fluorescence achieved by 1 μM apelin-13 on this plate as 100%.
# EC-50 values for apelin-13 and the apelin receptor compounds described in this patent were determined by standard algorithms using a specific software package.
row,EC50,Compound
1,1020 nM,"CC(C)C[C@H](NC(=O)c1ccc2c(c1)nc(Cc1cccs1)n2C1CCCCC1C)C(=O)O (single isomer, unassigned) [Example 413]"
2,664 nM,"CC(C)C[C@H](NC(=O)c1ccc2c(c1)nc(Cc1cccs1)n2C1CCCCC1C)C(=O)O (single isomer, unassigned) [Example 414]"
3,532 nM,"CC(C)C[C@H](NC(=O)c1ccc2c(c1)nc(Cc1cccs1)n2C1CCCCC1C)C(=O)O (single isomer, unassigned) [Example 415]"
4,25 nM,"CC(C)C[C@H](NC(=O)c1ccc2c(c1)nc(Cc1ccco1)n2C1CCCCC1C)C(=O)O (single isomer, unassigned) [Example 416]"
5,715 nM,"CC(C)C[C@H](NC(=O)c1ccc2c(c1)nc(Cc1ccco1)n2C1CCCCC1C)C(=O)O (single isomer, unassigned) [Example 417]"
6,248 nM,"CC(C)C[C@H](NC(=O)c1ccc2c(c1)nc(Cc1ccco1)n2C1CCCCC1C)C(=O)O (single isomer, unassigned) [Example 418]"
7,313 nM,"CC(C)C[C@H](NC(=O)c1ccc2c(c1)nc(Cc1ccco1)n2C1CCCCC1C)C(=O)O (single isomer, unassigned) [Example 419]"
8,32 nM,"CC(C)C[C@@H](CC(=O)O)NC(=O)c1ccc2c(c1)nc(Cc1ccco1)n2C1CCCCC1C (single isomer, unassigned) [Example 432]"
9,1720 nM,"CC(C)C[C@@H](CC(=O)O)NC(=O)c1ccc2c(c1)nc(Cc1ccco1)n2C1CCCCC1C (single isomer, unassigned) [Example 433]"
10,425 nM,"CC(C)C[C@@H](CC(=O)O)NC(=O)c1ccc2c(c1)nc(Cc1ccco1)n2C1CCCCC1C (single isomer, unassigned) [Example 434]"

# The remaining lines, values behind:
row,Compound,EC50
1,"CC(C)C[C@H](NC(=O)c1ccc2c(c1)nc(Cc1cccs1)n2C1CCCCC1C)C(=O)O (single isomer, unassigned) [Example 412]",106 nM
2,"CCCC[C@H](NC(=O)c1ccc2c(c1)nc(Cc1cccs1)n2C1CCCCC1C)C(=O)O (single isomer, unassigned) [Example 420]",14 nM
3,"CCCC[C@H](NC(=O)c1ccc2c(c1)nc(Cc1cccs1)n2C1CCCCC1C)C(=O)O (single isomer, unassigned) [Example 421]",20000 nM
4,"CCCC[C@H](NC(=O)c1ccc2c(c1)nc(Cc1cccs1)n2C1CCCCC1C)C(=O)O (single isomer, unassigned) [Example 422]",1860 nM
5,"CCCC[C@H](NC(=O)c1ccc2c(c1)nc(Cc1cccs1)n2C1CCCCC1C)C(=O)O (single isomer, unassigned) [Example 423]",9730 nM
6,"CC1CCCCC1n1c(Cc2cccs2)nc2cc(C(=O)N[C@@H](CC3CCCCC3)C(=O)O)ccc21 (single isomer, unassigned) [Example 424]",389 nM
7,"CC1CCCCC1n1c(Cc2cccs2)nc2cc(C(=O)N[C@@H](CC3CCCCC3)C(=O)O)ccc21 (single isomer, unassigned) [Example 425]",2680 nM
8,"CC1CCCCC1n1c(Cc2cccs2)nc2cc(C(=O)N[C@@H](CC3CCCCC3)C(=O)O)ccc21 (single isomer, unassigned) [Example 426]",1630 nM
9,"CC1CCCCC1n1c(Cc2cccs2)nc2cc(C(=O)N[C@@H](CC3CCCCC3)C(=O)O)ccc21 (single isomer, unassigned) [Example 427]",1320 nM
10,"CC(C)C[C@H](NC(=O)c1ccc2c(c1)nc(Cc1cccs1)n2C1CCCC1C)C(=O)O (single isomer, unassigned) [Example 428]",266 nM
11,"CC(C)C[C@H](NC(=O)c1ccc2c(c1)nc(Cc1cccs1)n2C1CCCC1C)C(=O)O (single isomer, unassigned) [Example 429]",891 nM
12,"CC(C)C[C@H](NC(=O)c1ccc2c(c1)nc(Cc1cccs1)n2C1CCCC1C)C(=O)O (single isomer, unassigned) [Example 430]",1310 nM
13,"CC(C)C[C@H](NC(=O)c1ccc2c(c1)nc(Cc1cccs1)n2C1CCCC1C)C(=O)O (single isomer, unassigned) [Example 431]",3470 nM
